{
  "source": "patent US5623080A",
  "about": "“Fluorone and pyronin Y derivatives” (Spectra Group Limited, Inc., priority 1995, dated 1997)",
  "key": {"[1]": {"test": "absorption wavelength (λmax) and extinction (ε)", "assay_type": "physicochemical", "conditions": "EtOH, Table 1"}, "[2]": {"test": "double bond conversion (C=C% Conversion) by FTIR", "method": "To a resin formulation consisting of 15 parts urethane diacrylate, 15 parts DPHPA, 20 parts TPGDA and 40 parts TMPTA was added DIDMA, initiator and (4-octyloxyphenyl)phenyliodonium hexafluoroantimonate (OPPI). The samples were coated to a thickness of 15 microns and exposed to a 75 W tungsten halogen dental lamp (focused through an optical fiber) at a distance of 0.75 inch at which the Light intensity was about 0.40 W/cm^2. The molar ratios are indicative of the amounts of fluorone to onium salt to amine coinitiator. The double bond conversion was determined by FTIR spectroscopy. The pencil hardness of a given test sample is measured by holding a pencil at a 45° angle to the sample and drawing across it towards the person testing it. Using the pencils in an order from softest to hardest, the first pencil that scratches the surface is assigned as the pencil hardness of the sample. The pencil hardness scale is as follows from softest to hardest: 4B, 3B, 2B, B, HB, H, 2H, 3H, 4H, 6H. For instance, if a 2H pencil is the first pencil to scratch the surface then the pencil hardness is 2H."}, "[3]": {"test": "double bond conversion (C=C% Conversion) by FTIR", "conditions": "0.05 wt %; (1:2:3); NPG; 60 sec"}},
  "data": [
    {"molecule": "CCCCOc1ccc2cc3cc(I)c(=O)c(I)c-3oc2c1", "note": "[DIBF, 5,7-diiodo-3-butoxy-6-fluorone]", "values": [
      {"measurement": "λmax in EtOH (first value)", "setting": "[1]", "value": 470},
      {"measurement": "ε (first value)", "setting": "[1]; at first λmax, in M-1cm-1 (unit assumed)", "value": "30,200"},
      {"measurement": "C=C% Conversion", "setting": "[2]; 0.05 wt %, (1:0:60), DIDMA, 30 sec", "value": 37, "unit": "%"},
      {"measurement": "C=C% Conversion", "setting": "[2]; 0.05 wt %, (1:1:60), DIDMA, 30 sec", "value": 37, "unit": "%"},
      {"measurement": "C=C% Conversion", "setting": "[2]; 0.05 wt %, (1:2:0), DIDMA, 30 sec", "value": 5, "unit": "%"},
      {"measurement": "C=C% Conversion", "setting": "[2]; 0.05 wt %, (1:2:3), DIDMA, 30 sec", "value": 40, "unit": "%"},
      {"measurement": "C=C% Conversion", "setting": "[2]; 0.05 wt %, (1:2:3), DIDMA, 60 sec", "value": 43, "unit": "%"},
      {"measurement": "C=C% Conversion", "setting": "[2]; 0.05 wt %, (1:2:3), NPG, 30 sec", "value": 40, "unit": "%"},
      {"measurement": "C=C% Conversion", "setting": "[2]; 0.05 wt %, (1:2:5), DIDMA, 30 sec", "value": 40, "unit": "%"},
      {"measurement": "C=C% Conversion", "setting": "[2]; 0.05 wt %, (1:2:60), DIDMA, 30 sec", "value": 43, "unit": "%"},
      {"measurement": "C=C% Conversion", "setting": "[2]; 0.10 wt %, (1:2:0), DIDMA, 30 sec", "value": 18, "unit": "%"},
      {"measurement": "C=C% Conversion", "setting": "[2]; 0.10 wt %, (1:2:3), DIDMA, 30 sec", "value": 45, "unit": "%"},
      {"measurement": "C=C% Conversion", "setting": "[2]; 0.10 wt %, (1:2:3), DIDMA, 60 sec", "value": 47, "unit": "%"},
      {"measurement": "C=C% Conversion", "setting": "[2]; 0.15 wt %, (1:2:0), DIDMA, 30 sec", "value": 19, "unit": "%"},
      {"measurement": "C=C% Conversion", "setting": "[2]; 0.15 wt %, (1:2:3), DIDMA, 30 sec", "value": 50, "unit": "%"},
      {"measurement": "C=C% Conversion", "setting": "[2]; 0.15 wt %, (1:2:3), DIDMA, 60 sec", "value": 54, "unit": "%"},
      {"measurement": "C=C% Conversion", "setting": "[2]; 0.20 wt %, (1:2:3), DIDMA, 30 sec", "value": 51, "unit": "%"},
      {"measurement": "C=C% Conversion", "setting": "[2]; 0.25 wt %, (1:2:3), DIDMA, 30 sec", "value": 50, "unit": "%"},
      {"measurement": "C=C% Conversion", "setting": "[3]", "value": 43, "unit": "%"}
    ]}
  ]
}
